From ChEMBL document CHEMBL4261554, “Bioisosteric replacement of central 1,2,4-oxadiazole ring of high affinity CB2 ligands by regioisomeric 1,3,4-oxadiazole ring” (Medchemcomm, 2017)

What was measured:
[1] = target: T1, Cannabinoid receptor 1 (Homo sapiens, UniProt P21554); experiment: biochemical
[2] = target: T1, Cannabinoid receptor 1; experiment: Displacement of [3H]CP55940 from beta-galactosidase reporter fused human CB1 receptor expressed in CHOK1 cell membranes at 1 uM after 1 hr by scintillation spectrometric analysis relative to control
[3] = target: T2, Cannabinoid receptor 2 (Homo sapiens, UniProt P34972); experiment: Displacement of [3H]CP55940 from beta-galactosidase reporter fused human CB2 receptor expressed in CHOK1 cell membranes after 1 hr by scintillation spectrometric analysis
[4] = target: T2, Cannabinoid receptor 2; experiment: Displacement of [3H]CP55940 from beta-galactosidase reporter fused human CB2 receptor expressed in CHOK1 cell membranes at 1 uM after 1 hr by scintillation spectrometric analysis

T2 sequence (P34972 whole entry, the tested form may be a part): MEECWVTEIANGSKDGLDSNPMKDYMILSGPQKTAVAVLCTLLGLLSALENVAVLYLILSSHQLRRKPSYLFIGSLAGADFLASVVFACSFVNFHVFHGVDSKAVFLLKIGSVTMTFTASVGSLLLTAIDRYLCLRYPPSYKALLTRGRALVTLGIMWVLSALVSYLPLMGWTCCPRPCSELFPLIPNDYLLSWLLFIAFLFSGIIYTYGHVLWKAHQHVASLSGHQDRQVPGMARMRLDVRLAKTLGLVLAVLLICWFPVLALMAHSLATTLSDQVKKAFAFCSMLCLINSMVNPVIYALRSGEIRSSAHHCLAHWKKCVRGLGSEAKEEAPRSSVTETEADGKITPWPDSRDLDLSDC
T1 sequence (P21554 whole entry, the tested form may be a part): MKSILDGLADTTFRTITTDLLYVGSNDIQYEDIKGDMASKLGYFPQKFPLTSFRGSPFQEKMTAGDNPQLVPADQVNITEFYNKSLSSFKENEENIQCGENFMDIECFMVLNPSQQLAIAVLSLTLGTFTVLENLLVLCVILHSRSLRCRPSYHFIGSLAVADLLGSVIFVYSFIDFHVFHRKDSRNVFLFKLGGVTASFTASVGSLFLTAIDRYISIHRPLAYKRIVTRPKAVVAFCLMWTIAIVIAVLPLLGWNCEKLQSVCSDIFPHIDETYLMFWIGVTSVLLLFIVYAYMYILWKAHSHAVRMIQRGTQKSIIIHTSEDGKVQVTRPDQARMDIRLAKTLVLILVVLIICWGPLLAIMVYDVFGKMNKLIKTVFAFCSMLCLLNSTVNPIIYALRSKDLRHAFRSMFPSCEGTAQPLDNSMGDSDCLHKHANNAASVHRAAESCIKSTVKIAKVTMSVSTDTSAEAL

| Structure (SMILES) | Ki [1] [nM] | inhibition [2] [%] | Ki [3] [nM] | inhibition [4] [%] |
| --- | --- | --- | --- | --- |
| CCCCCCC(C)(C)c1cc(O)c2c(c1)OC(C)(C)[C@@H]1CC=C(CO)C[C@@H]21 | 9.55 | – | – | – |
| N#Cc1cc(F)ccc1-c1nnc(CCC(=O)Nc2ccc3c(c2)c2ccccc2n3CCF)o1 | – | -1 | 219 | > 50 |
| O=C(CCc1nnc(-c2ccc(Br)cc2F)o1)Nc1ccc2c(c1)c1ccccc1n2CCO | – | – | – | < 50 |
| O=C(CCc1nnc(-c2ccc(Br)cc2F)o1)Nc1ccc2c(c1)c1ccccc1n2CCF | – | -8 | 318 | > 50 |
| O=C(CCc1nc(-c2ccc(Br)cc2F)no1)Nc1ccc2c(c1)c1ccccc1n2CCF | – | -5 | – | – |
| N#Cc1cc(F)ccc1-c1nnc(CCC(=O)Nc2ccc3c(c2)c2ccccc2n3CCO)o1 | – | – | – | < 50 |
| O=C(CCc1nnc(-c2ccc(F)cc2Br)o1)Nc1ccc2c(c1)c1ccccc1n2CCO | – | – | – | < 50 |
| O=C(CCc1nnc(-c2ccc(F)cc2Br)o1)Nc1ccc2c(c1)c1ccccc1n2CCF | – | 22 | 25 | > 50 |
| N#Cc1cc(F)ccc1-c1noc(CCC(=O)Nc2ccc3c(c2)c2ccccc2n3CCF)n1 | – | -8 | – | – |
